Among the data in patent US20220306647A1, “NOVEL INDOLE-2-CARBOXAMIDES ACTIVE AGAINST THE HEPATITUS B VIRUS (HBV)” (AICURIS GMBH & CO. KG, priority 2019, published 2022) are IC50 values, retold here.

T1 sequence (P03146 whole entry, the tested form may be a part): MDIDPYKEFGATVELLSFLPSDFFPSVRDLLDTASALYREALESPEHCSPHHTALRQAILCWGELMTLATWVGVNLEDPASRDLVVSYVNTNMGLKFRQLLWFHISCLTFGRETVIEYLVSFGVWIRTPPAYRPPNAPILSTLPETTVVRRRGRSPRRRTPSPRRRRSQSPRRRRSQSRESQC

The test has as its target T1, HBV core protein (C-terminal truncated core protein, 149 amino acids of the N-terminal assembly domain, BODIPY-FL labelled) (UniProt P03146).
T1 construct: fused on or other part: A single cysteine added after residue 149, at position 150; It carries the BODIPY-FL maleimide label
As to the kind of experiment: Biochemical capsid assembly assay (fluorescence quenching). Particulars: assembly started with NaCl, fluorescence read after 6 min, read-out: Assembly activity. The procedure:
The screening for assembly effector activity was done based on a fluorescence quenching assay published by Zlotnick et al. (2007). The C-terminal truncated core protein containing 149 amino acids of the N-terminal assembly domain fused to a unique cysteine residue at position 150 and was expressed in E. coli using the pET expression system (Merck Chemicals, Darmstadt). Purification of core dimer protein was performed using a sequence of size exclusion chromatography steps. In brief, the cell pellet from 1 L BL21 (DE3) Rosetta2 culture expressing the coding sequence of core protein cloned NdeI/XhoI into expression plasmid pET21b was treated for 1 h on ice with a native lysis buffer (Qproteome Bacterial Protein Prep Kit; Qiagen, Hilden). After a centrifugation step the supernatant was precipitated during 2 h stirring on ice with 0.23 g/ml of solid ammonium sulfate. Following further centrifugation the resulting pellet was resolved in buffer A (100 mM Tris, pH 7.5; 100 mM NaCl; 2 mM DTT) and was subsequently loaded onto a buffer A equilibrated CaptoCore 700 column (GE HealthCare, Frankfurt). The column flow through containing the assembled HBV capsid was dialyzed against buffer N (50 mM NaHCO3 pH 9.6; 5 mM DTT) before urea was added to a final concentration of 3M to dissociate the capsid into core dimers for 1.5 h on ice. The protein solution was then loaded onto a 1L Sephacryl S300 column. After elution with buffer N core dimer containing fractions were identified by SDS-PAGE and subsequently pooled and dialyzed against 50 mM HEPES pH 7.5; 5 mM DTT. To improve the assembly capacity of the purified core dimers a second round of assembly and disassembly starting with the addition of 5 M NaCl and including the size exclusion chromatography steps described above was performed. From the last chromatography step core dimer containing fractions were pooled and stored in aliquots at concentrations between 1.5 to 2.0 mg/ml at −80° C.
Immediately before labelling the core protein was reduced by adding freshly prepared DTT in a final concentration of 20 mM. After 40 min incubation on ice storage buffer and DTT was removed using a Sephadex G-25 column (GE HealthCare, Frankfurt) and 50 mM HEPES, pH 7.5. For labelling 1.6 mg/ml core protein was incubated at 4° C. and darkness overnight with BODIPY-FL maleimide (Invitrogen, Karlsruhe) in a final concentration of 1 mM. After labelling the free dye was removed by an additional desalting step using a Sephadex G-25 column. Labelled core dimers were stored in aliquots at 4° C. In the dimeric state the fluorescence signal of the labelled core protein is high and is quenched during the assembly of the core dimers to high molecular capsid structures. The screening assay was performed in black 384 well microtiter plates in a total assay volume of 10 μl using 50 mM HEPES pH 7.5 and 1.0 to 2.0 μM labelled core protein. Each screening compound was added in 8 different concentrations using a 0.5 log-unit serial dilution starting at a final concentration of 100 μM, 31.6 μM or 10 μM, In any case the DMSO concentration over the entire microtiter plate was 0.5%. The assembly reaction was started by the injection of NaCl to a final concentration of […] which induces the assembly process to approximately 25% of the maximal quenched signal. 6 min after starting the reaction the fluorescence signal was measured using a Clariostar plate reader (BMG Labtech, Ortenberg) with an excitation of 477 nm and an emission of 525 nm. As 100% and 0% assembly control HEPES buffer containing 2.5 M and 0 M NaCl was used. Experiments were performed thrice in triplicates. EC50 values were calculated by non-linear regression analysis using the Graph Pad Prism 6 software (GraphPad Software, La Jolla, USA).
Regarding `O=C(O)c1ccc(C2(NC(=O)c3cnn4c3CN(C(=O)c3cc5ccccc5[nH]3)CC4)CC2)nc1` [Example 19, 6-{1-[5-(1H-indole-2-carbonyl)-4H,5H,6H,7H-pyrazolo[1,5-a]pyrazine-3-amido]cyclopropyl}pyridine-3-carboxylic acid], the IC50 was under 100 µM. For the compound `O=C(O)c1cnc(C2(NC(=O)c3cnn4c3CN(C(=O)c3cc5ccccc5[nH]3)CC4)CC2)nc1` [Example 20, 2-{1-[5-(1H-indole-2-carbonyl)-4H,5H,6H,7H-pyrazolo[1,5-a]pyrazine-3-amido]cyclopropyl}pyrimidine-5-carboxylic acid], the IC50 is under 5 µM. Consider `O=C(O)c1cnc(C2(NC(=O)c3cnn4c3CN(C(=O)c3cc5ccccc5[nH]3)CC4)CC2)nc1` [Example 29, 2-{1-[5-(1H-indole-2-carbonyl)-4H,5H,6H,7H-pyrazolo[1,5-a]pyrazine-3-amido]cyclopropyl}pyrimidine-5-carboxylic acid], for which the IC50 is under 100 µM. For `O=C(O)c1cccc(C2(NC(=O)c3cnn4c3CN(C(=O)c3cc5ccccc5[nH]3)CC4)CC2)c1` [Example 32, 3-{1-[5-(1H-indole-2-carbonyl)-4H,5H,6H,7H-pyrazolo[1,5-a]pyrazine-3-amido]cyclopropyl}benzoic acid], the IC50 was under 5 µM. As to `CN(C(=O)c1cnn2c1CN(C(=O)c1cc3ccccc3[nH]1)CC2)C1(c2nccc(C(=O)O)n2)CC1` [Example 36, 2-{1-[N-methyl-5-(1H-indole-2-carbonyl)-4H,5H,6H,7H-pyrazolo[1,5-a]pyrazine-3-amido]cyclopropyl}pyrimidine-4-carboxylic acid], the IC50 was under 5 µM. Take `CN(C(=O)c1[nH]nc2c1CN(C(=O)c1cc3ccccc3[nH]1)CC2)C1(c2ccc(C(=O)O)cc2)CC1` [Example 44, 4-{1-[N-methyl-5-(1H-indole-2-carbonyl)-2H,4H,5H,6H,7H-pyrazolo[4,3-c]pyridine-3-amido]cyclopropyl}benzoic acid]: the IC50 is under 5 µM. `CN(C(=O)c1[nH]nc2c1CN(C(=O)c1cc3ccccc3[nH]1)CC2)C1(c2ncc(C(=O)O)cn2)CC1` [Example 56, 2-{1-[N-methyl-5-(1H-indole-2-carbonyl)-2H,4H,5H,6H,7H-pyrazolo[4,3-c]pyridine-3-amido]cyclopropyl}pyrimidine-5-carboxylic acid]: the IC50 lay in the range of 5 to 10 µM. On to `CN(C(=O)c1cnn2c1CN(C(=O)c1cc3c(F)c(F)ccc3[nH]1)CC2)C1(c2ncc(C(=O)O)cn2)CC1` [Example 58, 2-{1-[N-methyl-5-(4,5-difluoro-1H-indole-2-carbonyl)-4H,5H,6H,7H-pyrazolo[1,5-a]pyrazine-3-amido]cyclopropyl}pyrimidine-5-carboxylic acid], for which the IC50 was under 5 µM.

On to `Cc1c(F)ccc2[nH]c(C(=O)N3CCn4ncc(C(=O)N(C)C5(c6ncc(C(=O)O)cn6)CC5)c4C3)cc12` [Example 59, 2-{1-[N-methyl-5-(5-fluoro-4-methyl-1H-indole-2-carbonyl)-4H,5H,6H,7H-pyrazolo[1,5-a]pyrazine-3-amido]cyclopropyl}pyrimidine-5-carboxylic acid], for which the IC50 is under 5 µM.

Regarding `CN(C(=O)c1[nH]nc2c1CN(C(=O)c1cc3c(F)c(F)ccc3[nH]1)CC2)C1(c2ccc(C(=O)O)cc2)CC1` [Example 65, 4-{1-[N-methyl-5-(4,5-difluoro-1H-indole-2-carbonyl)-2H,4H,5H,6H,7H-pyrazolo[4,3-c]pyridine-3-amido]cyclopropyl}benzoic acid], the IC50 is under 5 µM. The figure for `Cc1c(F)ccc2[nH]c(C(=O)N3CCc4n[nH]c(C(=O)N(C)C5(c6ccc(C(=O)O)cc6)CC5)c4C3)cc12` [Example 66, 4-{1-[N-methyl-5-(5-fluoro-4-methyl-1H-indole-2-carbonyl)-2H,4H,5H,6H,7H-pyrazolo[4,3-c]pyridine-3-amido]cyclopropyl}benzoic acid] is under 5 µM. Turning to `Cc1cc(F)cc2[nH]c(C(=O)N3CCc4n[nH]c(C(=O)N(C)C5(c6ccc(C(=O)O)cc6)CC5)c4C3)cc12` [Example 67, 4-{1-[N-methyl-5-(6-fluoro-4-methyl-1H-indole-2-carbonyl)-2H,4H,5H,6H,7H-pyrazolo[4,3-c]pyridine-3-amido]cyclopropyl}benzoic acid], the IC50 was under 5 µM. In the case of `CN(C(=O)c1[nH]nc2c1CN(C(=O)c1cc3c(Cl)cccc3[nH]1)CC2)C1(c2ncc(C(=O)O)cn2)CC1` [Example 70, 2-{1-[N-methyl-5-(4-chloro-1H-indole-2-carbonyl)-2H,4H,5H,6H,7H-pyrazolo[4,3-c]pyridine-3-amido]cyclopropyl}pyrimidine-5-carboxylic acid], the IC50 is under 5 µM.

Consider `CN(C(=O)c1[nH]nc2c1CN(C(=O)c1cc3c(F)c(F)ccc3[nH]1)CC2)C1(c2ncc(C(=O)O)cn2)CC1` [Example 71, 2-{1-[N-methyl-5-(4,5-difluoro-1H-indole-2-carbonyl)-2H,4H,5H,6H,7H-pyrazolo[4,3-c]pyridine-3-amido]cyclopropyl}pyrimidine-5-carboxylic acid], for which the IC50 is under 5 µM. Turning to `Cc1c(F)ccc2[nH]c(C(=O)N3CCc4n[nH]c(C(=O)N(C)C5(c6ncc(C(=O)O)cn6)CC5)c4C3)cc12` [Example 72, 2-{1-[N-methyl-5-(5-fluoro-4-methyl-1H-indole-2-carbonyl)-2H,4H,5H,6H,7H-pyrazolo[4,3-c]pyridine-3-amido]cyclopropyl}pyrimidine-5-carboxylic acid], the IC50 was under 5 µM. Take `Cc1cc(F)cc2[nH]c(C(=O)N3CCc4n[nH]c(C(=O)N(C)C5(c6ncc(C(=O)O)cn6)CC5)c4C3)cc12` [Example 73, 2-{1-[N-methyl-5-(6-fluoro-4-methyl-1H-indole-2-carbonyl)-2H,4H,5H,6H,7H-pyrazolo[4,3-c]pyridine-3-amido]cyclopropyl}pyrimidine-5-carboxylic acid]: the IC50 was under 5 µM.

For the compound `CN(C(=O)c1cnn2c1CN(C(=O)c1cc3ccccc3[nH]1)CC2)C1(COc2ccc(C(=O)O)cc2Cl)CC1` [Example 101, 3-chloro-4-({1-[N-methyl-5-(1H-indole-2-carbonyl)-4H,5H,6H,7H-pyrazolo[1,5-a]pyrazine-3-amido]cyclopropyl}methoxy)benzoic acid], the IC50 is under 5 µM. As for `O=C(c1cc2ccccc2[nH]1)N1CCc2noc(C(=O)N3CCC(O)CC34CC4)c2C1` (stereo not drawn) [Example 102, 4-[5-(1H-indole-2-carbonyl)-4H,5H,6H,7H-[1,2]oxazolo[4,3-c]pyridine-3-carbonyl]-4-azaspiro[2.5]octan-7-ol], the IC50 is under 5 µM. On to `C[C@@H](NC(=O)c1noc2c1CN(C(=O)c1cc3cc(F)c(F)cc3[nH]1)CC2)C(F)(F)F` [Example 111, 5-(5,6-difluoro-1H-indole-2-carbonyl)-N-[(2R)-1,1,1-trifluoropropan-2-yl]-4H,5H,6H,7H-[1,2]oxazolo[4,5-c]pyridine-3-carboxamide], for which the IC50 is under 5 µM. Next, `C[C@@H](NC(=O)c1noc2c1CN(C(=O)c1cc3c(F)cc(F)cc3[nH]1)CC2)C(F)(F)F` [Example 112, 5-(4,6-difluoro-1H-indole-2-carbonyl)-N-[(2R)-1,1,1-trifluoropropan-2-yl]-4H,5H,6H,7H-[1,2]oxazolo[4,5-c]pyridine-3-carboxamide]: under 5 µM. Consider `C[C@@H](NC(=O)c1onc2c1CN(C(=O)c1cc3cc(F)c(F)cc3[nH]1)CC2)C(F)(F)F` [Example 115, 5-(5,6-difluoro-1H-indole-2-carbonyl)-N-[(2R)-1,1,1-trifluoropropan-2-yl]-4H,5H,6H,7H-[1,2]oxazolo[4,3-c]pyridine-3-carboxamide], for which the IC50 was under 5 µM.
